Measurements: ChEMBL document CHEMBL1255416, “Genetic and biochemical characterization of TRU-1, the endogenous class C beta-lactamase from Aeromonas enteropelogenes” (Antimicrob Agents Chemother, 2010)
Converted amounts (≈) assume the structure as drawn.

Assays:
Escherichia coli [1] = experiment: Antimicrobial activity against Escherichia coli TOP10; assay type: functional
Aeromonas caviae [2] = experiment: Activity of Aeromonas caviae Beta-lactamase CAV1
[3] = test system: Aeromonas enteropelogenes; experiment: Ratio of Kcat Km for Aeromonas enteropelogenes Beta-lactamase TRU1
[4] = test system: Aeromonas enteropelogenes; experiment: Antimicrobial activity against Aeromonas enteropelogenes M1 hyperproducing beta-lactamase AmpC; assay type: functional
[5] = test system: Aeromonas enteropelogenes; experiment: Activity of Aeromonas enteropelogenes Beta-lactamase TRU1
Aeromonas caviae [6] = experiment: Ratio of Kcat Km for Aeromonas caviae Beta-lactamase CAV1
Escherichia coli K-12 [7] = experiment: Ratio of Kcat Km for Escherichia coli K-12 Beta-lactamase AmpC
Escherichia coli K-12 [8] = experiment: Activity of Escherichia coli K-12 Beta-lactamase AmpC
[9] = test system: Aeromonas enteropelogenes; experiment: (§1) Inhibition of Aeromonas enteropelogenes Beta-lactamase TRU1
[10] = test system: Aeromonas enteropelogenes; experiment: Activity of Aeromonas enteropelogenes Beta-lactamase TRU1 assessed as steady state compound hydrolysis rate
[11] = test system: Aeromonas enteropelogenes; experiment: Ratio of Kcat Km for Aeromonas enteropelogenes Beta-lactamase TRU1 assessed as steady state compound hydrolysis rate
[12] = test system: Aeromonas enteropelogenes; experiment: Antimicrobial activity against Aeromonas enteropelogenes ATCC 49803 producing endogenous class C beta-lactamase TRU-1; assay type: functional
Escherichia coli [13] = experiment: Antimicrobial activity against Escherichia coli NI540 carrying cloned class C beta-lactamase TRU-1 gene; assay type: functional
[14] = as §1

CO/N=C(\C(=O)N[C@@H]1C(=O)N2C(C(=O)[O-])=C(C[N+]3(C)CCCC3)CS[C@H]12)c1csc(N)n1
MIC (Escherichia coli [1]): 0.03 µg/mL (≈ 0.0624 µM) | Km (Aeromonas caviae [2]): 690 µM | kcat (Aeromonas caviae [2]): 2.5 s⁻¹ | kcat/Km [3]: 2.6 ×10⁴ /M/s | MIC [4]: 2 µg/mL (≈ 4.16 µM) | Km [5]: 360 µM | kcat [5]: 9.4 s⁻¹ | kcat/Km (Aeromonas caviae [6]): 3.6 ×10³ /M/s

CC1(C)S[C@@H]2[C@H](NC(=O)[C@H](N)c3ccccc3)C(=O)N2[C@H]1C(=O)O
kcat/Km [3]: 8.8 ×10⁵ /M/s | kcat/Km (Escherichia coli K-12 [7]): 1.2 ×10⁶ /M/s | Km [5]: 0.72 µM | kcat [5]: 0.63 s⁻¹ | Km (Escherichia coli K-12 [8]): 3.5 µM | kcat (Escherichia coli K-12 [8]): 4.2 s⁻¹

CC1=C(C(=O)O)N2C(=O)[C@@H](NC(=O)[C@H](N)c3ccccc3)[C@H]2SC1
kcat/Km [3]: 9.3 ×10⁶ /M/s | Km [5]: 17 µM | kcat [5]: 160 s⁻¹

CO/N=C(\C(=O)N[C@@H]1C(=O)N2C(C(=O)O)=C(COC(N)=O)CS[C@H]12)c1ccco1
kcat/Km [3]: 3.8 ×10⁶ /M/s | kcat/Km (Escherichia coli K-12 [7]): 1 ×10⁶ /M/s | kcat [5]: 0.042 s⁻¹ | Km (Escherichia coli K-12 [8]): 0.15 µM | kcat (Escherichia coli K-12 [8]): 0.15 s⁻¹

CO/N=C(\C(=O)N[C@@H]1C(=O)N2C(C(=O)O)=C(CSc3nc(=O)c(O)nn3C)CS[C@H]12)c1csc(N)n1
kcat/Km [3]: 7 ×10⁵ /M/s | kcat [5]: 0.042 s⁻¹ | Km [9]: 6 µM

Cc1nnc(SCC2=C(C(=O)O)N3C(=O)[C@@H](NC(=O)Cn4cnnn4)[C@H]3SC2)s1
kcat/Km [3]: 4.6 ×10³ /M/s | Km [10]: 80 µM | kcat [10]: 0.25 s⁻¹ | Km [5]: 120 µM | kcat [5]: 0.55 s⁻¹ | kcat/Km [11]: 3.1 ×10³ /M/s

O=C(Cc1cccs1)N[C@@H]1C(=O)N2C(C(=O)[O-])=C(C[n+]3ccccc3)CS[C@H]12
Km (Aeromonas caviae [2]): 770 µM | kcat (Aeromonas caviae [2]): 300 s⁻¹ | kcat/Km [3]: 1.7 ×10⁵ /M/s | kcat/Km (Escherichia coli K-12 [7]): 9.5 ×10⁶ /M/s | Km [5]: > 600 µM | kcat [5]: > 100 s⁻¹ | Km (Escherichia coli K-12 [8]): 4 µM | kcat (Escherichia coli K-12 [8]): 38 s⁻¹ | kcat/Km (Aeromonas caviae [6]): 3.9 ×10⁵ /M/s

CC1(C)S[C@@H]2[C@H](NC(=O)[C@H](N)c3ccc(O)cc3)C(=O)N2[C@H]1C(=O)O [AMOXICILLIN]
MIC (Escherichia coli [1]): 2 µg/mL (≈ 5.47 µM) | MIC [4]: 4 µg/mL (≈ 10.9 µM) | MIC [12]: 2 µg/mL (≈ 5.47 µM) | MIC (Escherichia coli [13]): 32 µg/mL (≈ 87.6 µM)

C[C@H]1[C@H](NC(=O)/C(=N\OC(C)(C)C(=O)O)c2csc(N)n2)C(=O)N1S(=O)(=O)O [AZTREONAM]
MIC [4]: 0.125 µg/mL (≈ 0.287 µM) | Km [5]: > 500 µM

CO/N=C(\C(=O)N[C@@H]1C(=O)N2C(C(=O)O)=C(COC(C)=O)CS[C@H]12)c1csc(N)n1 [CEFOTAXIME]
MIC (Escherichia coli [1]): 0.06 µg/mL (≈ 0.132 µM) | Km (Aeromonas caviae [2]): 0.1 µM | kcat (Aeromonas caviae [2]): 0.2 s⁻¹ | kcat/Km [3]: 1.7 ×10⁷ /M/s | MIC [4]: 32 µg/mL (≈ 70.3 µM) | MIC [12]: 0.032 µg/mL (≈ 0.0703 µM) | kcat/Km (Escherichia coli K-12 [7]): 1 ×10⁵ /M/s | MIC (Escherichia coli [13]): 8 µg/mL (≈ 17.6 µM) | kcat [5]: 0.015 s⁻¹ | Km (Escherichia coli K-12 [8]): 1.7 µM | kcat (Escherichia coli K-12 [8]): 0.17 s⁻¹ | kcat/Km (Aeromonas caviae [6]): 2 ×10⁶ /M/s

CO[C@@]1(NC(=O)Cc2cccs2)C(=O)N2C(C(=O)O)=C(COC(N)=O)CS[C@@H]21 [CEFOXITIN]
MIC (Escherichia coli [1]): 4 µg/mL (≈ 9.36 µM) | Km (Aeromonas caviae [2]): 0.4 µM | kcat (Aeromonas caviae [2]): 0.5 s⁻¹ | kcat/Km [3]: 3.5 ×10⁷ /M/s | MIC [4]: 32 µg/mL (≈ 74.9 µM) | MIC [12]: 8 µg/mL (≈ 18.7 µM) | kcat/Km (Escherichia coli K-12 [7]): 3 ×10⁵ /M/s | MIC (Escherichia coli [13]): 128 µg/mL (≈ 299 µM) | kcat [5]: 0.88 s⁻¹ | Km (Escherichia coli K-12 [8]): 0.65 µM | kcat (Escherichia coli K-12 [8]): 0.2 s⁻¹ | kcat/Km (Aeromonas caviae [6]): 1.3 ×10⁶ /M/s | Km [9]: 0.025 µM

CO/N=C(\C(=O)N[C@@H]1C(=O)N2C(C(=O)[O-])=C(C[n+]3cccc4c3CCC4)CS[C@H]12)c1csc(N)n1 [CEFPIROME]
MIC (Escherichia coli [1]): 0.03 µg/mL (≈ 0.0583 µM) | kcat/Km [3]: 2.7 ×10⁵ /M/s | MIC [4]: 4 µg/mL (≈ 7.77 µM) | MIC [12]: 0.125 µg/mL (≈ 0.243 µM) | MIC (Escherichia coli [13]): 0.5 µg/mL (≈ 0.972 µM) | Km [5]: 85 µM | kcat [5]: 23 s⁻¹

CC(C)(O/N=C(\C(=O)N[C@@H]1C(=O)N2C(C(=O)[O-])=C(C[n+]3ccccc3)CS[C@H]12)c1csc(N)n1)C(=O)O [CEFTAZIDIME]
MIC (Escherichia coli [1]): 0.125 µg/mL (≈ 0.229 µM) | Km (Aeromonas caviae [2]): 0.6 µM | kcat (Aeromonas caviae [2]): 0.2 s⁻¹ | kcat/Km [3]: 9.2 ×10⁵ /M/s | MIC [4]: 16 µg/mL (≈ 29.3 µM) | MIC [12]: 0.125 µg/mL (≈ 0.229 µM) | MIC (Escherichia coli [13]): 8 µg/mL (≈ 14.6 µM) | kcat [5]: 0.11 s⁻¹ | kcat/Km (Aeromonas caviae [6]): 3.3 ×10⁵ /M/s | Km [9]: 0.12 µM

CC(=O)OCC1=C(C(=O)O)N2C(=O)[C@@H](NC(=O)Cc3cccs3)[C@H]2SC1 [CEPHALOTHIN]
MIC (Escherichia coli [1]): 4 µg/mL (≈ 10.1 µM) | Km (Aeromonas caviae [2]): 500 µM | kcat (Aeromonas caviae [2]): 540 s⁻¹ | kcat/Km [3]: 1 ×10⁷ /M/s | MIC [4]: > 256 µg/mL | MIC [12]: > 256 µg/mL | kcat/Km (Escherichia coli K-12 [7]): 7 ×10⁶ /M/s | MIC (Escherichia coli [13]): 256 µg/mL (≈ 646 µM) | Km [5]: 45 µM | kcat [5]: 470 s⁻¹ | Km (Escherichia coli K-12 [8]): 42 µM | kcat (Escherichia coli K-12 [8]): 300 s⁻¹ | kcat/Km (Aeromonas caviae [6]): 1.1 ×10⁶ /M/s

C[C@@H](O)[C@H]1C(=O)N2C(C(=O)O)=C(SCCNC=N)C[C@H]12 [IMIPENEM ANHYDROUS]
MIC [4]: 0.125 µg/mL (≈ 0.418 µM) | MIC [12]: 0.125 µg/mL (≈ 0.418 µM) | MIC (Escherichia coli [13]): 0.25 µg/mL (≈ 0.835 µM) | Km [5]: > 500 µM

CC1(C)S[C@@H]2[C@H](NC(=O)Cc3ccccc3)C(=O)N2[C@H]1C(=O)O [PENICILLIN G]
Km (Aeromonas caviae [2]): 8.7 µM | kcat (Aeromonas caviae [2]): 5 s⁻¹ | kcat/Km [3]: 1.4 ×10⁷ /M/s | kcat/Km (Escherichia coli K-12 [7]): 1 ×10⁷ /M/s | kcat [5]: 27 s⁻¹ | Km (Escherichia coli K-12 [8]): 4.4 µM | kcat (Escherichia coli K-12 [8]): 45 s⁻¹ | kcat/Km (Aeromonas caviae [6]): 5.7 ×10⁵ /M/s | Ki [14]: 2000 nM

CCN1CCN(C(=O)N[C@@H](C(=O)N[C@@H]2C(=O)N3[C@@H]2SC(C)(C)[C@@H]3C(=O)O)c2ccccc2)C(=O)C1=O [PIPERACILLIN]
MIC (Escherichia coli [1]): 1 µg/mL (≈ 1.93 µM) | kcat/Km [3]: 2.7 ×10⁶ /M/s | MIC [4]: 4 µg/mL (≈ 7.73 µM) | MIC [12]: 0.25 µg/mL (≈ 0.483 µM) | MIC (Escherichia coli [13]): 8 µg/mL (≈ 15.5 µM) | kcat [5]: 0.54 s⁻¹ | Ki [14]: 200 nM

CC1(C)S[C@@H]2[C@H](NC(=O)[C@H](C(=O)O)c3ccsc3)C(=O)N2[C@H]1C(=O)O [TICARCILLIN]
MIC (Escherichia coli [1]): 4 µg/mL (≈ 10.4 µM) | MIC [4]: 8 µg/mL (≈ 20.8 µM) | MIC [12]: 0.125 µg/mL (≈ 0.325 µM) | MIC (Escherichia coli [13]): 64 µg/mL (≈ 166 µM)
